Here are results for 3 compounds from patent publication US12721816B2, “Polymer-encapsulated drug particles” (Tonic Medical, Inc., priority 2020, dated 2026).

For data set [1] the following is noted: BSA added; cited from earlier work.
The conditions of data set [2]: urethral stricture patients; 1 hour, 3 hours, 5 hours, 10 hours, 24 hours, and 5 days.
Experimental: Clinical subjects were evaluated at 14, 30, 90, 180, 365 days, and 2 years after the index procedure. Evaluations included analysis of stricture free rate, uroflowmetry including Qmax, and PVR.
Data set [3] can be described thus: stability under ethylene oxide sterilization, heating, and aging with paclitaxel. As to conditions: formulated with paclitaxel.
For data set [4], the target named is albumin (Homo sapiens, UniProt P02768). The note with it: cited from earlier work.
albumin, sequence (P02768 25-609): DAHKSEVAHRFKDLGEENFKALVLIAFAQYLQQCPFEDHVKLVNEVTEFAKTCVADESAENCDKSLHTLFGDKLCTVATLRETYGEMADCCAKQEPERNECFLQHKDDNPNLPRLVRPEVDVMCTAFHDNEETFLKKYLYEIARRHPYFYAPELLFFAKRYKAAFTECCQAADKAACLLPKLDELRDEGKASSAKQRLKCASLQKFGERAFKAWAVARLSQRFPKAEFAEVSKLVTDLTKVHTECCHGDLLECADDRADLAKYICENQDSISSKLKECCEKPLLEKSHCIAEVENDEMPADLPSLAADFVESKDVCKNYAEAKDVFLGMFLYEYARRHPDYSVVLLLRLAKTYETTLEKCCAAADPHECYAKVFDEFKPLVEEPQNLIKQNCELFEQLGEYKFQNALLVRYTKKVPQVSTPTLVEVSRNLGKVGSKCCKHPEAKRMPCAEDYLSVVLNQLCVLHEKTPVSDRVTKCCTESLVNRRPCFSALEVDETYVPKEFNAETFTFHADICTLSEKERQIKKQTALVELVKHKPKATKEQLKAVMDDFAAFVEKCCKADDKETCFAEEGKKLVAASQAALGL

With `CC(=O)O[C@H]1C(=O)[C@@]2(C)[C@H]([C@H](OC(=O)c3ccccc3)[C@]3(O)C[C@H](OC(=O)[C@H](O)[C@@H](NC(=O)c4ccccc4)c4ccccc4)C(C)=C1C3(C)C)[C@]1(OC(C)=O)CO[C@@H]1C[C@@H]2O` [paclitaxel], in data set [1], the “solubility increase in PBS with the addition of BSA” value is “over 20 fold”. In addition, the “Human plasma paclitaxel concentration on average” value in data set [2] was “below the level of quantification”.

In the case of `O=C(O)c1ccccc1` [benzoic acid], the “stability under ethylene oxide sterilization, heating, and aging process” value in data set [3] is reported as “not stable”.

Turning to `CO[C@H]1C[C@@H]2CC[C@@H](C)[C@@](O)(O2)C(=O)C(=O)N2CCCC[C@H]2C(=O)O[C@H]([C@H](C)C[C@@H]2CC[C@@H](O)[C@H](OC)C2)CC(=O)[C@H](C)/C=C(\C)[C@@H](O)[C@@H](OC)C(=O)[C@H](C)C[C@H](C)/C=C/C=C/C=C/1C` [sirolimus], the “share of protein binding to albumin” value in data set [4] (bound primarily to albumin) is 97%. For the same compound, the protein bound in data set [4] is 92%.
